Measurements reported in ChEMBL document CHEMBL1201862, “PubChem BioAssay data set” (2004).
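All cell lines were grown in 96-well plates and treated with compound for 48 hours. Here, GI50 denotes the concentration required for 50% inhibition of growth.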 Calls of active or inactive are those of the source. Rule as the data show it: active = GI50 up to about 1.1 µM and inactive = higher.

Tests used:
Test in all cases: NCI tumour cell line growth inhibition, 48 h
[1] = tested on: SK-MEL-2
[2] = tested on: SF-295
[3] = tested on: NCI-H522
[4] = tested on: SN12C
[5] = tested on: U-251
[6] = tested on: A498
[7] = tested on: DU-145
[8] = tested on: HCC 2998
[9] = tested on: NCI-H226
[10] = tested on: A549
[11] = tested on: MDA-MB-435
[12] = tested on: UACC-257
[13] = tested on: SK-MEL-28
[14] = tested on: T47D
[15] = tested on: HCT-15
[16] = tested on: OVCAR-3
[17] = tested on: M14

SMILES | GI50 [1] | GI50 [2] | GI50 [3] | GI50 [4] | GI50 [5] | GI50 [6] | GI50 [7] | GI50 [8] | GI50 [9] | GI50 [10] | GI50 [11] | GI50 [12] | GI50 [13] | GI50 [14] | GI50 [15] [µM] | GI50 [16] | GI50 [17]
CC/C(Cl)=N\OC(=O)Nc1ccc(F)c(Cl)c1 | 17.3 µM (inactive) | 18.2 µM (inactive) | 1.87 µM (inactive) | 18 µM (inactive) | 17.2 µM (inactive) | 16.2 µM (inactive) | 19.7 µM (inactive) | 18.7 µM (inactive) | 24.4 µM (inactive) | 21.3 µM (inactive) | 21.2 µM (inactive) | 17.3 µM (inactive) | 15.6 µM (inactive) | 7.89 µM (inactive) | 15.2 | 2.59 µM (inactive) | 2.38 µM (inactive)
c1ccc2/c3[nH]/c(c2c1)=N\c1ccc(cc1)-c1nc2ccc(cc2o1)/N=c1/[nH]/c(c2ccccc12)=N/c1ccc2nc(oc2c1)-c1ccc(cc1)\N=3 | 38.8 µM (inactive) | 31 µM (inactive) | 43.8 µM (inactive) | 20.9 µM (inactive) | 20.1 µM (inactive) | 33.5 µM (inactive) | 23.2 µM (inactive) | 17.1 µM (inactive) | 68.2 µM (inactive) | 26.8 µM (inactive) | 27.6 µM (inactive) | > 100 µM (inactive) | 24.5 µM (inactive) | 25.2 µM (inactive) | 3.1 | 26.5 µM (inactive) | 53.8 µM (inactive)
O=C(O)c1ccc(CI)cc1 | 17.9 µM (inactive) | 7.82 µM (inactive) | 3.9 µM (inactive) | 17 µM (inactive) | 7.85 µM (inactive) | 20.8 µM (inactive) | 18.4 µM (inactive) | 18 µM (inactive) | 22.2 µM (inactive) | 17.6 µM (inactive) | 17.4 µM (inactive) | 19.3 µM (inactive) | 14.3 µM (inactive) | 25 µM (inactive) | 16 | 11.2 µM (inactive) | 17.4 µM (inactive)
COc1ccc(/N=C/C=C/Nc2ccc(OC)cc2)cc1 | 16.4 µM (inactive) | 7.98 µM (inactive) | 5.42 µM (inactive) | 3.9 µM (inactive) | 5.35 µM (inactive) | 14 µM (inactive) | 18.7 µM (inactive) | 8.45 µM (inactive) | 17.5 µM (inactive) | 12.1 µM (inactive) | 9.27 µM (inactive) | 7.35 µM (inactive) | 15.2 µM (inactive) | 15 µM (inactive) | 4.65 | 1.84 µM (inactive) | 11 µM (inactive)
Clc1ccc(CCNC2(c3cc4ccccc4s3)CCCCC2)cc1Cl | 19 µM (inactive) | 28.7 µM (inactive) | 17.5 µM (inactive) | 33.7 µM (inactive) | 23.9 µM (inactive) | 19.1 µM (inactive) | 32.9 µM (inactive) | 7.74 µM (inactive) | 17.3 µM (inactive) | 47.8 µM (inactive) | 41.4 µM (inactive) | 19 µM (inactive) | 25.2 µM (inactive) | 20.2 µM (inactive) | 15.3 | 20.6 µM (inactive) | 23.8 µM (inactive)
CN(C)c1nc(N)nc(CCl)n1 | > 100 µM (inactive) | 30.8 µM (inactive) | 10.9 µM (inactive) | 43.4 µM (inactive) | 35.2 µM (inactive) | 27.9 µM (inactive) | 99.5 µM (inactive) | 45.6 µM (inactive) | 36.8 µM (inactive) | 78.9 µM (inactive) | 37.1 µM (inactive) | 87.7 µM (inactive) | 50.4 µM (inactive) | 60.4 µM (inactive) | 29.4 | 17.5 µM (inactive) | 28.1 µM (inactive)
CCCC(=O)Nc1cc(/C=C/C(=O)N2CC(CCl)c3c2cc(O)c2[nH]cc(C)c32)n(C)c1 (configuration not stated) | < 2.5e-05 µM (active) | < 2.5e-05 µM (active) | < 2.5e-05 µM (active) | < 2.5e-05 µM (active) | < 2.5e-05 µM (active) | < 2.5e-05 µM (active) | < 2.5e-05 µM (active) | < 2.5e-05 µM (active) | < 2.5e-05 µM (active) | < 2.5e-05 µM (active) | < 2.5e-05 µM (active) | < 2.5e-05 µM (active) | < 2.5e-05 µM (active) | < 2.5e-05 µM (active) | 0.000117 | < 2.5e-05 µM (active) | < 2.5e-05 µM (active)
CN(C)/C=N/S(=O)(=O)c1nn2c(C=O)c(-c3ccc(Cl)cc3)nc2s1 | 7.11 µM (inactive) | 14.4 µM (inactive) | 0.557 µM (active) | 2.23 µM (inactive) | 2.95 µM (inactive) | 16.2 µM (inactive) | 2.12 µM (inactive) | 5.25 µM (inactive) | 4.25 µM (inactive) | 8.26 µM (inactive) | 2.16 µM (inactive) | 2.7 µM (inactive) | 1.62 µM (inactive) | 1.67 µM (inactive) | 1.61 | 1.49 µM (inactive) | 0.962 µM (active)
O=C(CSCC(=O)N/N=C\c1ccc(O)c(O)c1O)N/N=C\c1ccc(O)c(O)c1O | 28.3 µM (inactive) | 2.24 µM (inactive) | 19.1 µM (inactive) | 21.2 µM (inactive) | 4.84 µM (inactive) | 29.7 µM (inactive) | 14.1 µM (inactive) | 14.7 µM (inactive) | 26.2 µM (inactive) | 23.9 µM (inactive) | 1.97 µM (inactive) | 5.25 µM (inactive) | 20.8 µM (inactive) | 18.7 µM (inactive) | 13.4 | 3.38 µM (inactive) | 6.31 µM (inactive)
CCOC(=O)C1=NN(c2ccc(C)cc2)C2(c3ccccc3)C=C(c3ccccc3)N(C)CCN12 (configuration not stated) | > 100 µM (inactive) | > 100 µM (inactive) | > 100 µM (inactive) | > 100 µM (inactive) | > 100 µM (inactive) | > 100 µM (inactive) | > 100 µM (inactive) | 82.4 µM (inactive) | > 100 µM (inactive) | > 100 µM (inactive) | > 100 µM (inactive) | 62.4 µM (inactive) | > 100 µM (inactive) | > 100 µM (inactive) | > 100 | > 100 µM (inactive) | > 100 µM (inactive)
Cc1nc2ccccc2n1CCc1nc2ccccc2s1 | 86.9 µM (inactive) | 8.49 µM (inactive) | 15.6 µM (inactive) | > 100 µM (inactive) | 75 µM (inactive) | 14.8 µM (inactive) | 70.5 µM (inactive) | 38.3 µM (inactive) | 0.857 µM (active) | 23.8 µM (inactive) | 57.8 µM (inactive) | 9.95 µM (inactive) | > 100 µM (inactive) | 7.21 µM (inactive) | 87.7 | 17.8 µM (inactive) | 33 µM (inactive)
Oc1cc(O)c2c(c1)OC(c1ccc(O)c(O)c1)C(OC1(c3cc(O)c(O)c(O)c3)Oc3cc(O)cc(O)c3C(O)C1O)C2 (configuration not stated) | 24.5 µM (inactive) | 33.1 µM (inactive) | 21.4 µM (inactive) | 20.8 µM (inactive) | 20.8 µM (inactive) | > 34.1 µM (inactive) | > 49 µM (inactive) | 62.8 µM (inactive) | 21.1 µM (inactive) | 27.7 µM (inactive) | 15.7 µM (inactive) | 37.4 µM (inactive) | > 40.6 µM (inactive) | 37.6 µM (inactive) | 36 | 35.6 µM (inactive) | 24.7 µM (inactive)
CSc1nc(SC)c2ncn(C3CC(Oc4ccc(C)cc4)C(COc4ccc(C)cc4)O3)c2n1 (configuration not stated) | > 100 µM (inactive) | > 100 µM (inactive) | > 100 µM (inactive) | > 100 µM (inactive) | > 100 µM (inactive) | > 100 µM (inactive) | > 100 µM (inactive) | > 100 µM (inactive) | > 100 µM (inactive) | > 100 µM (inactive) | > 100 µM (inactive) | > 100 µM (inactive) | > 100 µM (inactive) | 63.1 µM (inactive) | > 100 | > 100 µM (inactive) | > 100 µM (inactive)
Cn1c2ccccc2c(=S)c2ccccc21 | > 100 µM (inactive) | > 100 µM (inactive) | > 100 µM (inactive) | > 100 µM (inactive) | > 100 µM (inactive) | > 100 µM (inactive) | > 100 µM (inactive) | > 100 µM (inactive) | > 100 µM (inactive) | > 100 µM (inactive) | > 100 µM (inactive) | > 100 µM (inactive) | > 100 µM (inactive) | > 100 µM (inactive) | > 100 | > 100 µM (inactive) | > 100 µM (inactive)
Cc1ccc(/C=C2\CN(C)CC3C2=NN(c2ccccc2)C3c2ccc(C)cc2)cc1 (configuration not stated) | 29.4 µM (inactive) | > 100 µM (inactive) | > 100 µM (inactive) | > 100 µM (inactive) | 33.3 µM (inactive) | 35.3 µM (inactive) | > 100 µM (inactive) | > 100 µM (inactive) | > 100 µM (inactive) | > 100 µM (inactive) | > 100 µM (inactive) | > 100 µM (inactive) | > 100 µM (inactive) | > 100 µM (inactive) | > 100 | > 100 µM (inactive) | 57.4 µM (inactive)
COC(=O)C1=C([C@H]2COC(C)(C)O2)[C@H]2C[C@@H]1[C@@H]1OC(C)(C)O[C@@H]12 | > 100 µM (inactive) | > 100 µM (inactive) | > 100 µM (inactive) | > 100 µM (inactive) | > 100 µM (inactive) | > 100 µM (inactive) | > 100 µM (inactive) | > 100 µM (inactive) | > 100 µM (inactive) | > 100 µM (inactive) | > 100 µM (inactive) | > 100 µM (inactive) | > 100 µM (inactive) | > 100 µM (inactive) | > 100 | > 100 µM (inactive) | > 100 µM (inactive)
